The values below are quoted from earlier work in patent publication US12226503B2, “Prebiotic skin care compositions containing carboxylic acids” (priority 2019, dated 2025).

The conditions of this data set: toxic or irritant for humans or on skin.

For `O=C(O)CC(O)C(=O)O` (racemic) [D,L-Malic acid], the Toxicity entry is reported as “+”.

With `CCC(N)C(=O)O` (racemic) [D,L-α-amino-N-butyric acid], the Toxicity result is recorded as “+”.

Regarding `CCCCCCC(N)C(=O)O` (racemic) [D,L-α-amino-caprylic acid], the Toxicity result was “+”.

Regarding `O=C(O)c1ccc(O)cc1` [4-hydroxybenzoic acid], the Toxicity entry was “+”. Take `O=C(O)[C@@H](O)[C@@H](O)[C@H](O)[C@@H](O)C(=O)O` [D-saccharic acid]: the Toxicity entry was “+”.

Regarding `COc1cc(/C=C/C(=O)O)ccc1O` [Ferulic acid], the Toxicity entry is reported as “+”.

`O=C(O)/C=C/C(=O)O` [Fumaric acid]: the Toxicity result was “+”.

With `O=C(O)c1cc(O)c(O)c(O)c1` [Gallic acid], the Toxicity result is on record as “+”. As for `O=CC(=O)O` [Glyoxylic acid], the Toxicity result is on record as “+”. On to `O=C(O)CNC(=O)c1ccccc1` [Hippuric acid], for which the Toxicity result was “+”. For `C[C@H](O)C(=O)O` [L-lactic acid], the Toxicity entry was “+”. Regarding `O=C(O)[C@@H](O)[C@H](O)[C@H](O)[C@@H](O)C(=O)O` [Mucic acid], the Toxicity result is listed as “+”. For the compound `CC(=O)N[C@H]1[C@H]([C@H](O)[C@H](O)CO)O[C@](O)(C(=O)O)C[C@@H]1O` [N-acetyl-neuraminic acid], the Toxicity entry is “+”. Regarding `CCCCCCCCCCCCCCCCCC(=O)O` [Stearic acid], the Toxicity result was “+”. Take `O=C(O)C(CO)c1ccccc1` (stereo not shown) [Tropic acid]: the Toxicity entry was “+”. Regarding `CC(O)CC(=O)O` (stereo not drawn) [β-hydroxybutyric acid], the Toxicity result is “+”.

`NCCCC(=O)O` [γ-Aminobutyric acid]: the Toxicity result is recorded as “+”. For `NCCCCCC(=O)O` [ε-Amino-N-caproic acid], the Toxicity result is “+”. For Citric acid, the Toxicity result is recorded as “+”.
